In US7112586B2, “Substituted diamine derivatives useful as motilin antagonists” (Ortho-McNeil Pharmaceutical, Inc., priority 2000, dated 2006):

Each molecule was assayed against T1, Motilin Receptor (Oryctolagus cuniculus, UniProt G1T803) (assay: Motilin receptor binding, rabbit colon membranes, 125I porcine motilin). Settings: not given.
T1 construct: The muscle tissue was homogenized in 10 volumes of 50 mM Tris-Cl; from tissue; host or cells: rabbit colon smooth muscle, crude membrane homogenate
T1 sequence (G1T803 1-400): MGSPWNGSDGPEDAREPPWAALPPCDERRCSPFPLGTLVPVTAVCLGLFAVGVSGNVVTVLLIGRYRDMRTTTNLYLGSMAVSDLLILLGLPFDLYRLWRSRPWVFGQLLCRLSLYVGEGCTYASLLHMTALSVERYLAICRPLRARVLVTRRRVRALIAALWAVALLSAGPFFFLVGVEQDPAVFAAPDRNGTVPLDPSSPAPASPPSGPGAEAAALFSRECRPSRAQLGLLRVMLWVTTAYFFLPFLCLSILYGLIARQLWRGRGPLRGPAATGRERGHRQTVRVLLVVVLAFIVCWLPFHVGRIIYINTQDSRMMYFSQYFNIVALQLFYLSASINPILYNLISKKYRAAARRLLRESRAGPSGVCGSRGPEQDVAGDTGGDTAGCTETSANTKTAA
Set-up: Rabbit Colon % Inh / inhibition / % Inh (Rabbit colon): dose or concentration left out as unconfirmed
Method: Rabbit colon was removed, dissected free from the mucosa and serosa, and diced into small pieces. The muscle tissue was homogenized in 10 volumes of 50 mM Tris-Cl, 10 mM MgCl2, 0.1 mg/ml bacitracin, and 0.25 mM Peflabloc, at pH 7.5 in a Polytron (29000 rpm, 4×15 seconds). The homogenate was centrifuged at 1000×g for 15 minutes and the supernatant discarded. The pellet was washed twice before being suspended in homogenizing buffer. The crude homogenate was resuspended through a 23 gauge needle before storing at −80° C. […] After 60 minutes at 30° C., the samples were cooled in ice, centrifuged in the cold at 13000×g for 1 minute. The pellet was washed twice with 1 ml of cold saline, the supernatant was aspirated, and the pellet at the bottom of the tube counted in a gamma counter. Non-specific binding was determined by the inclusion of 1 mM of unlabeled motilin. IC50 values were determined from Kaleidograph curves.

Row | SMILES | IC50 [µM]
1 | O=C(CCCN(C(=O)c1ccc(F)cc1)c1cccc(OCCN2CCOCC2)c1)N(CCc1ccccc1)Cc1ccccc1 [compound 4] | 0.69

Same assay, conditions: rabbit colon membranes

Row | SMILES | Rabbit Colon % Inh [%]
2 | CN(CCOc1cccc(N(CC2CCCC(N(Cc3cccc(Cl)c3)C(=O)C(C)(C)C)C2)C(=O)c2ccc(F)cc2)c1)Cc1ccccc1 (racemic) [compound 232] | 62
3 | CN1CCCC1CCOc1cccc(N(CC2CCCC(N(Cc3cccc(Cl)c3)C(=O)C(C)(C)C)C2)C(=O)c2ccc(F)cc2)c1 (racemic) [compound 235] | 61
4 | CN1CCCC1CCOc1cccc(N(CC2CCCC(N(Cc3cccc(Cl)c3)C(=O)C(Cl)(Cl)Cl)C2)C(=O)c2ccc(F)cc2)c1 (racemic) [compound 236] | 53
5 | Cc1ccc(S(=O)(=O)N(CCCC(=O)N(CCc2ccccc2)Cc2ccccc2)c2cccc(OCCN3CCOCC3)c2)cc1 [compound 2] | 9
6 | Cc1ccc(C(=O)N(CCCC(=O)N(CCc2ccccc2)Cc2ccccc2)c2cccc(OCCN3CCOCC3)c2)cc1 [compound 3] | 35
7 | O=C(CCCCN(C(=O)Nc1ccccc1)c1cccc(OCCN2CCOCC2)c1)N(CCc1ccccc1)Cc1ccccc1 [compound 5] | 40
8 | Cc1ccc(C(=O)N(CCCCC(=O)N(CCc2ccccc2)Cc2ccccc2)c2cccc(OCCN3CCOCC3)c2)cc1 [compound 6] | 24
9 | O=C(CCCCN(C(=O)c1ccc(F)cc1)c1cccc(OCCN2CCOCC2)c1)N(CCc1ccccc1)Cc1ccccc1 [compound 7] | 42
10 | CCN(Cc1ccccc1)C(=O)CCCN(C(=O)Nc1ccccc1)c1cccc(OCCN2CCOCC2)c1 [compound 8] | 18
11 | CCN(Cc1ccccc1)C(=O)CCCN(c1cccc(OCCN2CCOCC2)c1)S(=O)(=O)c1ccc(C)cc1 [compound 9] | 27
12 | CCN(Cc1ccccc1)C(=O)CCCN(C(=O)c1ccc(C)cc1)c1cccc(OCCN2CCOCC2)c1 [compound 10] | 29
13 | CCN(Cc1ccccc1)C(=O)CCCN(C(=O)c1ccc(F)cc1)c1cccc(OCCN2CCOCC2)c1 [compound 11] | 0
14 | CCN(Cc1ccccc1)C(=O)CCCCN(c1cccc(OCCN2CCOCC2)c1)S(=O)(=O)c1ccc(C)cc1 [compound 12] | 4
15 | CCN(Cc1ccccc1)C(=O)CCCCN(C(=O)c1ccc(C)cc1)c1cccc(OCCN2CCOCC2)c1 [compound 13] | 21
16 | CCN(Cc1ccccc1)C(=O)CCCCN(C(=O)c1ccc(F)cc1)c1cccc(OCCN2CCOCC2)c1 [compound 14] | 25
17 | CN(Cc1ccccc1)C(=O)CCCN(C(=O)Nc1ccccc1)c1cccc(OCCN2CCOCC2)c1 [compound 15] | 21
18 | Cc1ccc(S(=O)(=O)N(CCCC(=O)N(C)Cc2ccccc2)c2cccc(OCCN3CCOCC3)c2)cc1 [compound 16] | 21
19 | Cc1ccc(C(=O)N(CCCC(=O)N(C)Cc2ccccc2)c2cccc(OCCN3CCOCC3)c2)cc1 [compound 17] | 12
20 | CN(Cc1ccccc1)C(=O)CCCN(C(=O)c1ccc(F)cc1)c1cccc(OCCN2CCOCC2)c1 [compound 18] | 0
21 | CN(Cc1ccccc1)C(=O)CCCCN(C(=O)Nc1ccccc1)c1cccc(OCCN2CCOCC2)c1 [compound 19] | 5
22 | Cc1ccc(S(=O)(=O)N(CCCCC(=O)N(C)Cc2ccccc2)c2cccc(OCCN3CCOCC3)c2)cc1 [compound 20] | 8
23 | Cc1ccc(C(=O)N(CCCCC(=O)N(C)Cc2ccccc2)c2cccc(OCCN3CCOCC3)c2)cc1 [compound 21] | 34
24 | CN(Cc1ccccc1)C(=O)CCCCN(C(=O)c1ccc(F)cc1)c1cccc(OCCN2CCOCC2)c1 [compound 22] | 23
25 | O=C(CCCN(C(=O)Nc1ccccc1)c1cccc(OCCN2CCOCC2)c1)N(Cc1ccccc1)Cc1ccccc1 [compound 23] | 48
26 | Cc1ccc(S(=O)(=O)N(CCCC(=O)N(Cc2ccccc2)Cc2ccccc2)c2cccc(OCCN3CCOCC3)c2)cc1 [compound 24] | 6

Row | SMILES | Rabbit Colon % Inh [%]
27 | Cc1ccc(C(=O)N(CCCC(=O)N(Cc2ccccc2)Cc2ccccc2)c2cccc(OCCN3CCOCC3)c2)cc1 [compound 25] | 23
28 | O=C(CCCCN(C(=O)Nc1ccccc1)c1cccc(OCCN2CCOCC2)c1)N(Cc1ccccc1)Cc1ccccc1 [compound 26] | 22
29 | Cc1ccc(S(=O)(=O)N(CCCCC(=O)N(Cc2ccccc2)Cc2ccccc2)c2cccc(OCCN3CCOCC3)c2)cc1 [compound 27] | 22
30 | Cc1ccc(C(=O)N(CCCCC(=O)N(Cc2ccccc2)Cc2ccccc2)c2cccc(OCCN3CCOCC3)c2)cc1 [compound 28] | 13
31 | O=C(CCCCN(C(=O)c1ccc(F)cc1)c1cccc(OCCN2CCOCC2)c1)N(Cc1ccccc1)Cc1ccccc1 [compound 29] | 18
32 | CCN(Cc1ccc(C)cc1)C(=O)CCCN(C(=O)Nc1ccccc1)c1cccc(OCCN2CCOCC2)c1 [compound 30] | 17
33 | CCN(Cc1ccc(C)cc1)C(=O)CCCN(c1cccc(OCCN2CCOCC2)c1)S(=O)(=O)c1ccc(C)cc1 [compound 31] | 39
34 | CCN(Cc1ccc(C)cc1)C(=O)CCCN(C(=O)c1ccc(C)cc1)c1cccc(OCCN2CCOCC2)c1 [compound 32] | 12
35 | CCN(Cc1ccc(C)cc1)C(=O)CCCN(C(=O)c1ccc(F)cc1)c1cccc(OCCN2CCOCC2)c1 [compound 33] | 16
36 | CCN(Cc1ccc(C)cc1)C(=O)CCCCN(C(=O)Nc1ccccc1)c1cccc(OCCN2CCOCC2)c1 [compound 34] | 7
37 | CCN(Cc1ccc(C)cc1)C(=O)CCCCN(c1cccc(OCCN2CCOCC2)c1)S(=O)(=O)c1ccc(C)cc1 [compound 35] | 17
38 | CCN(Cc1ccc(C)cc1)C(=O)CCCCN(C(=O)c1ccc(C)cc1)c1cccc(OCCN2CCOCC2)c1 [compound 36] | 32
39 | CCN(Cc1ccc(C)cc1)C(=O)CCCCN(C(=O)c1ccc(F)cc1)c1cccc(OCCN2CCOCC2)c1 [compound 37] | 11
40 | COc1cccc(C(=O)N(Cc2ccccc2)C2CCCC(CN(C(=O)Nc3ccccc3)c3cccc(OCCN4CCOCC4)c3)C2)c1 (centres unmarked) [compound 41] | 58
41 | CC(C)(C)C(=O)N(Cc1ccccc1)C1CCCC(CN(C(=O)Nc2ccccc2)c2cccc(OCCN3CCOCC3)c2)C1 (centres unmarked) [compound 42] | 50
42 | O=C(Nc1ccccc1)N(CC1CCCC(N(Cc2ccccc2)C(=O)c2ccc3ccccc3c2)C1)c1cccc(OCCN2CCOCC2)c1 (centres unmarked) [compound 44] | 4
43 | O=C(Nc1ccccc1)N(CC1CCCC(N(Cc2ccccc2)C(=O)C(c2ccccc2)c2ccccc2)C1)c1cccc(OCCN2CCOCC2)c1 (centres unmarked) [compound 46] | 32
44 | O=C(Nc1ccccc1)N(CC1CCCC(N(Cc2cccc(Cl)c2)C(=O)C(Cl)(Cl)Cl)C1)c1cccc(OCCN2CCOCC2)c1 (centres unmarked) [compound 47] | 23
45 | O=C(Nc1ccccc1)N(CC1CCCC(N(Cc2cccc(Cl)c2)C(=O)c2cc(C(F)(F)F)cc(C(F)(F)F)c2)C1)c1cccc(OCCN2CCOCC2)c1 (centres unmarked) [compound 49] | 37
46 | O=C(Nc1ccccc1)N(CC1CCCC(N(Cc2cccc(Cl)c2)C(=O)c2ccc(-c3ccccc3)cc2)C1)c1cccc(OCCN2CCOCC2)c1 (centres unmarked) [compound 50] | 32
47 | COc1cccc(C(=O)N(Cc2cccc(Cl)c2)C2CCCC(CN(C(=O)Nc3ccccc3)c3cccc(OCCN4CCOCC4)c3)C2)c1 (centres unmarked) [compound 51] | 73
48 | CC(C)(C)C(=O)N(Cc1cccc(Cl)c1)C1CCCC(CN(C(=O)Nc2ccccc2)c2cccc(OCCN3CCOCC3)c2)C1 (centres unmarked) [compound 52] | 45
49 | O=C(Nc1ccccc1)N(CC1CCCC(N(Cc2cccc(Cl)c2)C(=O)CCc2ccccc2)C1)c1cccc(OCCN2CCOCC2)c1 (centres unmarked) [compound 53] | 52
50 | O=C(Nc1ccccc1)N(CC1CCCC(N(Cc2cccc(Cl)c2)C(=O)c2ccc3ccccc3c2)C1)c1cccc(OCCN2CCOCC2)c1 (centres unmarked) [compound 54] | 42

Same assay, conditions: rabbit colon membranes; read-out: Rabbit Colon % Inh

Row | SMILES | inhibition [%]
51 | O=C(CCCN(C(=O)Nc1ccccc1)c1cccc(OCCN2CCOCC2)c1)N(CCc1ccccc1)Cc1ccccc1 [compound 1] | 35
52 | O=C(Nc1ccccc1)N(c1cccc(OCCN2CCOCC2)c1)C1CCC(CN(Cc2cccc(Cl)c2)C(=O)C(Cl)(Cl)Cl)C1 (centres unmarked) [compound 39] | 4
53 | O=C(Nc1ccccc1)N(CC1CCCC(N(Cc2ccccc2)C(=O)Nc2ccccc2)C1)c1cccc(OCCN2CCOCC2)c1 (centres unmarked) [compound 40] | 11
54 | O=C(Nc1ccccc1)N(CC1CCCC(N(Cc2ccccc2)C(=O)CCc2ccccc2)C1)c1cccc(OCCN2CCOCC2)c1 (centres unmarked) [compound 43] | 74
55 | O=C(Nc1ccccc1)N(CC1CCCC(N(Cc2ccccc2)C(=O)c2cccc([N+](=O)[O-])c2)C1)c1cccc(OCCN2CCOCC2)c1 (centres unmarked) [compound 45] | 67
56 | O=C(Nc1ccccc1)N(CC1CCCC(N(Cc2ccccc2)C(=O)c2ccco2)C1)c1cccc(OCCN2CCOCC2)c1 (centres unmarked) [compound 48] | 67

Same assay, conditions: rabbit colon membranes; read-out: Rabbit Colon IC50

Row | SMILES | IC50 [µM]
57 | O=C(c1ccc(F)cc1)N(C[C@H]1CCC[C@@H](N(Cc2cccc(Cl)c2)C(=O)C(Cl)(Cl)Cl)C1)c1cccc(OCCN2CCCCC2)c1 [ID 239] | 0.073
58 | O=C(Nc1ccccc1)N(CC1CCCC(N(Cc2ccccc2)C(=O)CCc2ccccc2)C1)c1cccc(OCCN2CCOCC2)c1 (centres unmarked) [compound 43] | 0.73
59 | O=C(Nc1ccccc1)N(CC1CCCC(N(Cc2ccccc2)C(=O)c2cccc([N+](=O)[O-])c2)C1)c1cccc(OCCN2CCOCC2)c1 (centres unmarked) [compound 45] | 1.16
60 | O=C(Nc1ccccc1)N(CC1CCCC(N(Cc2ccccc2)C(=O)c2ccco2)C1)c1cccc(OCCN2CCOCC2)c1 (centres unmarked) [compound 48] | 0.656
61 | COc1cccc(C(=O)N(Cc2cccc(Cl)c2)C2CCCC(CN(C(=O)Nc3ccccc3)c3cccc(OCCN4CCOCC4)c3)C2)c1 (centres unmarked) [compound 51] | 0.65

Same assay, conditions: read-out: Rabbit Colon % Inh

Row | SMILES | inhibition [%]
62 | O=C(CCCN(C(=O)c1ccc(F)cc1)c1cccc(OCCN2CCOCC2)c1)N(CCc1ccccc1)Cc1ccccc1 [compound 4] | 75
